Patent US20090105189A1, “METHODS AND COMPOSITIONS FOR AMELIORATING OR INHIBITING DECLINE IN MEMORY OR INTELLIGENCE OR IMPROVING SAME” (priority 2006, published 2009)

What was measured:
[1] = system: rats; details: EC and IC rats, choline-supplemented vs control diet
Text: (§1) Animals were maintained as described for Example 13. For the first experiment (FIGS. 24-26), male pups were removed at postnatal d 23, separated into small groups, and allowed to acclimatize for 1 week. Pups were assigned to either the […] or IC condition; rats were matched according to body weight at PN day 23. […] Thus rats were fed the diets and were enriched or impoverished from 30-120 d of age.
(§2) The water maze was a black circular tank 1.83 m in diameter and 0.55 m in height, filled with water (25 C) to a depth of 20 cm and located in a room containing several extramaze cues. Four starting positions (N, S, E, and W) were spaced around its perimeter, dividing the pool into 4 equal quadrants. The rectangular clear Plexiglas escape platform used for the spatial task (11×14×19 cm) was submerged at a depth of […]. For the cured version of the water maze, a white rubber ball 8 cm in diameter attached to the top of the submerged platform protruded above the water surface. The platform could be used as a step to mount the ball to escape from the water.

[2] = system: rats; details: IC rats
Protocol: Behavioral training was carried out between 10:00 AM-2:00 PM, in a blinded manner. Rats received a 4-d training session consisting of 4 trials (i.e., swims) per day to locate the hidden platform (1.5 cm below the water surface), which remained in the same position across trials for individual animals (i.e. within one of 4 quadrants). On each trial the animal was placed into the tank facing the wall at one of 4 designated start points (N, S, E, and W) and allowed to escape onto the hidden platform. A different starting point was used on each trial such that each starting point was used once each day. […] After mounting the platform, rats remained on the platform for 20 seconds. Following each trial, animals were removed from the maze and placed in a holding cage for a 30 second inter-trial interval (ITI). The latency to mount the escape platform was used as a measure of task acquisition.
On day 5, the rats were given a probe test. For this, the platform was removed and the swim path and time spent searching in the quadrant of the pool that previously contained the platform were measured over 60 s. This provides a measurement for the retention of spatial memory and indicates whether a spatial strategy was used during hidden platform training.
as §1
For the second experiment, 4 groups of IC rats were utilized, as depicted below:
Four diets were prepared containing different amounts of CDP-choline. Mean weekly intakes were monitored for all rats, and the diets were adjusted so that rats would receive 500 mg/kg/d.
as §2

[3] = 500 mg/kg/d for 3 mo, 4 d of training

For cytidine-diphosphocholine, the “Escape latencies, visible platform task” value [1] was “No main effects of diet”, the “Escape latencies of initial trials on last 3 d of spatial training” value ([2]; 500 mg/kg/d for 3 mo) was “restored normal behavior” and the “Swim time in target quadrant, 60-sec probe test” value ([2]; 500 mg/kg/d for 3 mo) was “restored normal behavior”. The “Distance traveled to find the hidden platform” value [2, 3] was “restored normal behavior”, the “Escape latencies, hidden platform task” value [2, 3] was “exhibited normal latencies” and the “Escape latencies, hidden platform task (second experiment)” value ([2]; high-choline diet for 3 mon vs untreated IC rats) was “different significantly from untreated IC rats”. The “Swim time in target quadrant, 60-sec probe test (second experiment)” value ([2]; high-choline diets for 3 mon) was “swam for a significantly longer time in the target quadrant”.
